Here are results for two compounds from EP4702986A1, “POLYPEPTIDE AND USE THEREOF” (Biocells (Beijing) Biotech Co., Ltd., priority 2023, dated 2024).

One series has as its system SD rats. Particulars: rat, in vivo. The method, then: Male SD rats were anesthetized with isoflurane, and their neck hairs were shaved. A midline incision was made on the neck to expose the trachea. A ventilator and anesthesia machine for small animals were turned on, with concentration of an anesthetic gas set to 1.2, and its exit channel connected to an inlet of the ventilator. Tidal volume of the ventilator was set to 2 mL, the respiratory rate was 90 breaths/minute, and the respiratory ratio was 1:2. An outlet end of the ventilator was connected to a plastic hose, which was inserted into the rat's airway.
A machine and a software of a biological signal data acquisition and analysis system were turned on. One end of a data acquisition plate was connected to the plastic hose, and the other end was connected to a collector valve connected with a 1-mL syringe. The syringe was filled with heparinized saline, which was injected into the data acquisition plate to expel the air in the entire space until the heparinized saline flowed out from the other end of the plastic hose. The right common carotid arteries of the rats were isolated. A dead knot was made at the distal end and a slipknot at the proximal end of a right common carotid artery. A 1/2-sized incision was made in the artery between the knot with a microscissor, and the plastic hose with heparinized saline was inserted into the incision and fixed to prevent back-and-forth movement. The initial value of the blood pressure was set to zero with the zero-adjustment valve of the biological signal data acquisition and analysis system. The slipknot at the proximal end of the common carotid artery was untied, and real-time blood pressure data of the animal appeared on the software. […] The dosages of IRL1620, BX34, and BX229 were 5 µg/Kg, 42 µg/kg, and 6.6 µg/Kg, respectively.

Series [1] has as its system rat model of pMACO. Briefly: Foot fault test in rat model of pMACO. Format: in vivo, SD rats. The source says: Male SD rats weighing 280-300 g were used and acclimated for at least 3 days. Focal cerebral ischemia was induced by middle cerebral artery occlusion with a suture method under isoflurane anesthesia. The animals were placed in a secure supine position, and a midline incision was made to expose the right common carotid artery, external carotid artery, and internal carotid artery. A 4.0 monofilament nylon suture was advanced from the external carotid artery toward the internal carotid artery lumen until resistance was felt ( ~ 20 mm), indicating middle cerebral artery occlusion. The nylon filament was allowed to stay in place to create a permanent model of focal cerebral ischemia. Successfully modeled rats were randomly assigned to four groups: a solvent (normal saline) group (n=10), a 7 µg/Kg BX-34 group (n=10), a 5 µg/Kg BX-48 group (n=10), and a 5 µg/Kg IRL1620 group (n=10). Each group was administered once at 2 hours, 4 hours, and 6 hours, respectively, after modeling, for a total of three administrations. Grip strength was measured before administration and at 24 hours and on D3 and D7 after administration. A rotarod test and a foot fault test were performed before administration and at 24 hours and day 7 after administration. During the rotarod test, time and distance were recorded, and ratios of the measurement at 24 hours and the measurement at D7 to the pretest measurement were used as analysis indicators. The specific method for the foot fault test was as follows. The rats were placed on an elevated grid floor (29×29 cm, grid opening: 3 cm^2) for 2 minutes, and the number of foot faults (when a forelimb fell through the grid) and the total steps were recorded. % Foot fault = (the number of forelimb faults/the total number of forelimb steps) × 100.

The test system of series [2] is rat model of pMACO. Put plainly: Grip strength test in rat model of pMACO. It counts as in vivo, SD rats. Particulars: rat, in vivo.
A short description of the next series: in vivo. Particulars: male, SD, rat, in vivo, iv. The method, boiled down:
(§1)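 Male SD rats (200-230 g) given single tail-vein injections, descending doses from 480 µg/Kg to 30 µg/Kg. Toxic response, mortality and time of death recorded; acute toxicity level preliminarily set from doses without mortality.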

The next series concerns male SD rats. Briefly: in vivo. Particulars: one animal per row, observed 24 hours. In outline:
as §1

The test system of series [3] is rat model of pMACO. Briefly: mRS-6 scoring in rat model of pMACO. It counts as in vivo, SD rats. Also noted: mRS-7D / mRS-14D / mRS-21D / mRS-30D: scale not given here. Particulars: for mRS-7D: day 7; for mRS-14D: day 14; for mRS-21D: day 21; for mRS-30D: day 30. The source says: Male SD rats, weighing 280-300 g, were used and acclimatized for at least 3 days. Focal cerebral ischemia was induced by middle cerebral artery occlusion with a suture method under isoflurane anesthesia. The animals were placed in a supine position, a midline incision was made, and the right common carotid artery, external carotid artery, and internal carotid artery were exposed. A 4.0 monofilament nylon suture was advanced from the external carotid artery toward the internal carotid artery lumen until resistance was felt (~20 mm), indicating middle cerebral artery occlusion. The nylon filament was allowed to stay in place to create a permanent model of focal cerebral ischemia. The day of modeling was defined as D1, the next day as D2, and so on. Since the experiment was not be completed in a single batch, and in order to prevent accidental errors, all operations in this experiment had to follow the principle of parallel operation, i.e., the experiment on each day needed to include animals from each group. Sequential numbering for surgical modeling was obtained by sorting the animals according to their body weight before the experiment. After the surgery, successfully modeled pMCAO rats were randomly assigned into a model group and various treatment groups. The detailed grouping of the experiment was as follows: (1) 15 rats in the 5 µg/Kg IRL1620 group with 9 administrations over 3 days; (2) 15 rats in the 6.6 µg/Kg BX225 group with 9 administrations over 3 days; (3) 15 rats in the 19.8 µg/Kg BX225 group with 3 administrations over 3 days; (4) 15 rats in the model (normal saline) group; and (5) 6 rats in the sham group (the sham group underwent the same procedure without vascular ligation and suture insertion). The administration was performed via tail vein injection (iv) with an administration volume of 2 mL/kg. The first administration was 2 hours after the surgery. Administration frequencies were single and multiple administrations per day according to the experimental design. Administrations were performed on D1, D3, and D6, respectively, as detailed in Table 22. The model group and the sham group were given the same volume of vehicle normal saline.

The mark [4] stands for this setting: 3Time regimen: IRL1620 5 µg/Kg, BX225 6.6 µg/Kg.
[5] abbreviates: pMCAO rats, 6.6 µg/Kg three-dose group, iv.

“Also recorded” adds a separate entry of the source. Numbered stars: 1 amine (or outer) side, 2 acyl side, 3 side chain; on linkers, the order of the positions; unused ones are H or OH. Side chains are listed from the residue outwards. Peptide text beside a SMILES is read from it. * marks the point of attachment. C18 diacid = O=C(O)CCCCCCCCCCCCCCCCC(=O)*; γGlu = O=C(O)[C@H](CCC(=O)[*:2])N[*:1]; Fumaroyl = O=C(O)/C=C/C(=O)*; Lauroyl = CCCCCCCCCCCC(=O)*; AEEA = NCCOCCOCC(=O)O

Turning to `CC[C@H](C)[C@H](NC(=O)[C@H](CC(=O)O)NC(=O)[C@H](CCCCNC(=O)COCCOCCNC(=O)COCCOCCNC(=O)CC[C@H](NC(=O)CCCCCCCCCCCCCCCCC(=O)O)C(=O)O)NC(=O)[C@H](Cc1c[nH]cn1)NC(=O)[C@H](C)NC(=O)[C@H](Cc1ccccc1)NC(=O)[C@H](Cc1ccc(O)cc1)NC(=O)[C@@H](NC(=O)[C@H](C)NC(=O)[C@H](CCC(=O)O)NC(=O)[C@H](CCC(=O)O)NC(=O)[C@H](CC(=O)O)NC(=O)/C=C/C(=O)O)C(C)C)C(=O)N[C@H](C(=O)N[C@@H](Cc1c[nH]c2ccccc12)C(=O)O)[C@@H](C)CC` [BX-34] (Fumaroyl-DEEAVYFAHK([AEEA-AEEA-γGlu-C18 diacid])DIIW-OH), in the series on SD rats, the “maximum extent of decrease in blood pressure, of the baseline blood pressure” value is 9.5%±1.7% and the “time to the lowest blood pressure” value was in the range of 20 to 35 min. Besides, in the series with SD rats (iv), the “Maximum percentage of blood pressure reduction relative to baseline blood pressure (n = 3)” value is listed as 9.5%±1.7% and the “Time from baseline blood pressure to the lowest blood pressure” value fell in the range of 20 to 35 min. Further, in the series with rat model of pMACO [1] (pMACO rats, BX-34 7 µg/Kg, BX-48 5 µg/Kg, three administrations), the “percentages of foot faults compared with the saline group and the IRL1620 group” value is recorded as “lower”. Moreover, the “Foot fault Analysis Mean of 7D” value in the series with rat model of pMACO [1] (percentage of foot faults at 7D, IRL1620 5 µg/Kg, BX34 7 µg/Kg, BX48 5 µg/Kg, administered 3 times (2, 4, 6 hours after modeling)) is reported as 3.46%±2.92%. The “Foot fault Analysis Mean of 24h” value in the series with rat model of pMACO [1] (percentage of foot faults at 24h, IRL1620 5 µg/Kg, BX34 7 µg/Kg, BX48 5 µg/Kg, administered 3 times (2, 4, 6 hours after modeling)) was 10.64%±15.53%. Further, in the series on rat model of pMACO [1] (percentage of foot faults, pretest (baseline before administration), groups IRL1620 5 µg/Kg, BX34 7 µg/Kg, BX48 5 µg/Kg, 3 times), the “Foot fault Analysis Mean of Pretest” value is given as 1%±1%. Further, in the series with rat model of pMACO [2], the “Grip Strength Test 3D/pre” value was 63% ±14%, the “Grip Strength Test 7D/pre” value is given as 67% ±19% and the “Grip Strength Test 24h/pre” value is reported as 40% ±24%.

In the series “in vivo”, `CCCCCCCCCCCC(=O)N[C@@H](CCC(=O)NCCOCCOCC(=O)NCCCC[C@H](NC(=O)[C@H](Cc1c[nH]cn1)NC(=O)[C@H](C)NC(=O)[C@H](Cc1ccccc1)NC(=O)[C@H](Cc1ccc(O)cc1)NC(=O)[C@@H](NC(=O)[C@H](C)NC(=O)[C@H](CCC(=O)O)NC(=O)[C@H](CCC(=O)O)NC(=O)[C@H](CC(=O)O)NC(=O)/C=C/C(=O)O)C(C)C)C(=O)N[C@@H](CC(=O)O)C(=O)N[C@H](C(=O)N[C@H](C(=O)N[C@@H](Cc1c[nH]c2ccccc12)C(=O)O)[C@@H](C)CC)[C@@H](C)CC)C(=O)O` [BX-225] (Fumaroyl-DEEAVYFAHK([AEEA-γGlu-Lauroyl])DIIW-OH) had an MTD at 24 h of 0.03 mg/kg. The “Observations of Animal Status” value in the series with male SD rats (intravenous (tail vein) 30 µg/Kg) is “No obvious abnormalities observed within 24 hours”; in the series on male SD rats (intravenous (tail vein) 60 µg/Kg), “Lay still and showed no willingness to move at 7 minutes; became active at 10 minutes; signs of pain were observed in the animal through pupil observation; no pain at 23 minutes; also recorded: Lay still and showed no willingness to move at 7 minutes; became active at 10 minutes; signs of pain were observed in the animal through pupil observation; developed rapid breathing at 35 minutes; died at 70 minutes”; in the series on male SD rats (intravenous (tail vein) 120 µg/Kg) it was “Breathing became slightly faster at 2 minutes, showed no willingness to move, had slow reactions, and breathing speeded up at 25 minutes; the symptoms basically eased at 1.5 hours; also recorded: Showed no willingness to move, had slow reactions, and breathing became slightly faster at 10 minutes; the symptoms lasted for nearly 1 hour; the symptoms basically eased at 1 hour and 10 minutes; also recorded: Developed abdominal breathing and lay still at 27 minutes; died of difficulty in breathing at 40 minutes; also recorded: Developed abdominal breathing and lay still at 25 minutes; died of difficulty in breathing at 32 minutes”; with male SD rats (intravenous (tail vein) 240 µg/Kg), “Developed rapid breathing at 4 minutes, collapsed at 5 minutes, eyes turned dull at 7 minutes; died at 12 minutes”. The mRS-7D stood at 3.14±2.14 in the series on rat model of pMACO [3] (19.8 µg/Kg, 1Time regimen) and 1.67±0.50 in the series on rat model of pMACO [3] (setting [4]). Further, the mRS-14D in the series on rat model of pMACO [3] (19.8 µg/Kg, 1Time regimen) is listed as 3.90±2.61; in the series on rat model of pMACO [3] (setting [4]), 1.17±0.50. The mRS-21D was found to be 3.73±2.81 in the series with rat model of pMACO [3] (19.8 µg/Kg, 1Time regimen) and 0.75±0.41 in the series with rat model of pMACO [3] (setting [4]). Moreover, the mRS-30D in the series on rat model of pMACO [3] (19.8 µg/Kg, 1Time regimen) is on record as 3.65±2.91; in the series with rat model of pMACO [3] (setting [4]), 0.50±0.31. Moreover, the “mRS-6 score on day 14 compared with the normal saline group and the IRL1620 three-dose group” value in the series on rat model of pMACO [3] (setting [5]) is “close to a significant difference”. Moreover, the “mRS-6 scores, course from day 7, day 14, day 21, to day 30” value in the series with rat model of pMACO [3] (setting [5]) is listed as “continuous improvement”. The “mRS-6 scores on days 7, 21, and 30 compared with the normal saline group and the IRL1620 three-dose group” value in the series with rat model of pMACO [3] (pMCAO rats, 6.6 µg/Kg three-dose group, iv, P<0.05) was “significant differences”.
